# Assays:
# Staphylococcus aureus = test: Antimicrobial activity against Staphylococcus aureus ATCC 25923; assay type: functional
# Nannizzia gypsea = test: Antimicrobial activity against Microsporum gypseum SH-MU-4; assay type: functional
MIC (Staphylococcus aureus) [µM],Compound,MIC (Nannizzia gypsea) [µM]
87.8,C=C[C@]1(C)C=C2C(=O)[C@]3(O)OC[C@@]4(CCCC(C)(C)[C@@]43O)[C@@]2(O)[C@H](O)C1 [DIAPORTHEIN B],
,COc1ccc(C[C@@H]2NC(=O)[C@@]34OC(=O)O/C=C/[C@@](C)(O)C(=O)[C@@H](C)C/C=C/[C@H]3[C@H](O)[C@](C)(O)[C@@H](C)[C@@H]24)cc1 [SCOPARASIN B],30.3
